Where a name gives a salt, the structure may show the parent alone. Read-outs that look alike come from different tables or passages of the source.
What was measured:
[1] = system: HCT-15 (ATCC #CCL-225) (colorectal); format: cell-based; settings: for GI50 (drug concentration that produces 50% cell growth inhibition): result in words; for GI50: read-out: GI50 (drug concentration that produces 50% cell growth inhibition)
[2] = system: NCI-H460 (ATCC #HTB-177) (non-small cell lung); format: cell-based; settings: for GI50 (drug concentration that produces 50% cell growth inhibition): result in words; for GI50: read-out: GI50 (drug concentration that produces 50% cell growth inhibition)
[3] = system: SKOV-3 (ATCC #HTB-77) (ovarian); format: cell-based; settings: for GI50 (drug concentration that produces 50% cell growth inhibition): result in words; for GI50: read-out: GI50 (drug concentration that produces 50% cell growth inhibition)
[4] = system: HCT-116 (ATCC #CCL-247) (colorectal); format: cell-based; settings: for GI50 (drug concentration that produces 50% cell growth inhibition): result in words; for GI50: read-out: GI50 (drug concentration that produces 50% cell growth inhibition)
[5] = Solubility comparison in various solvents
Procedure: Compounds were dissolved in each solvent under constant stirring and temperature.

[6] = system: NCI-H460 (ATCC #HTB-177) (non-small cell lung); settings: H460 (NSCLC); NCI GI50 values; read-out: GI50 (drug concentration that produces 50% cell growth inhibition); cited from earlier work
[7] = system: HCT-116 (ATCC #CCL-247) (colorectal); settings: HCT-116 (COLON); NCI GI50 values; read-out: GI50 (drug concentration that produces 50% cell growth inhibition); cited from earlier work
[8] = system: HCT-15 (ATCC #CCL-225) (colorectal); settings: HCT-15 (COLON); NCI GI50 values; read-out: GI50 (drug concentration that produces 50% cell growth inhibition); cited from earlier work
[9] = system: SKOV-3 (ATCC #HTB-77) (ovarian); settings: SKOV-3 (OVARIAN); NCI GI50 values; read-out: GI50 (drug concentration that produces 50% cell growth inhibition); cited from earlier work

Structure (SMILES) | GI50 (drug concentration that produces 50% cell growth inhibition) ([3]; SKOV-3 (OVARIAN), 48 hours) | GI50 ([1]; HCT-15 (COLON), 48 hours) [nM] | GI50 ([2]; H460 (NSCLC), 48 hours) [nM] | GI50 ([4]; HCT-116 (COLON), 48 hours) [nM] | GI50 [6] [nM] | GI50 [7] [nM] | GI50 [9] [nM] | also measured
CC[C@@]1(OC(=O)CC(C)CC(=O)O[C@H]2CC[C@@]3(C)C(=CC[C@H]4[C@@H]5CC[C@H]([C@H](C)CCCC(C)C)[C@@]5(C)CC[C@@H]43)C2)C(=O)OCc2c1cc1n(c2=O)Cc2cc3ccccc3nc2-1 (stereo partly drawn) [Cholesterol 3-methyl glutaric-20-CPT, Cholesterol 3-Methyglutaric-20-Camptothecin] | poor | – | – | – | – | – | – | GI50 (drug concentration that produces 50% cell growth inhibition) ([1]; HCT-15 (COLON), 48 hours): poor; GI50 (drug concentration that produces 50% cell growth inhibition) ([2]; H460 (NSCLC), 48 hours): poor; GI50 (drug concentration that produces 50% cell growth inhibition) ([4]; HCT-116 (COLON), 48 hours): poor
CCc1c2c(nc3ccc(OC(=O)CC4(CC(=O)O[C@H]5CC[C@@]6(C)C(=CC[C@H]7[C@@H]8CC[C@H]([C@H](C)CCCC(C)C)[C@@]8(C)CC[C@@H]76)C5)CCCC4)cc13)-c1cc3c(c(=O)n1C2)COC(=O)[C@]3(O)CC [Cholesterol 3,3-tetramethylene glutaric-10-(7-ethyl-10-hydroxycamptothecin)] | – | 12600 | 871 | 2000 | – | – | – | GI50 ([3]; SKOV-3 (OVARIAN), 48 hours): 295 nM
CCc1c2c(nc3ccc(OC(=O)O[C@H]4CC[C@@]5(C)C(=CC[C@H]6[C@@H]7CC[C@H]([C@H](C)CCCC(C)C)[C@@]7(C)CC[C@@H]65)C4)cc13)-c1cc3c(c(=O)n1C2)COC(=O)[C@]3(O)CC [Cholesterol formate-10-SN38, Cholesterol formate-10-(7-ethyl-10-hydroxycamptothecin)] | – | 1910 | 10.5 | 631 | – | – | – | Solubility ([5]; Acetonitrile, r.t.): <1 mg/g; Solubility ([5]; Chloroform, r.t.): >40 mg/g; Solubility ([5]; Soybean Oil USP, r.t.): <1 mg/g; Solubility ([5]; Vitamin E USP/NF, 65 °C): >14 mg/g; GI50 ([3]; SKOV-3 (OVARIAN), 48 hours): 51.4 nM
CC[C@@]1(OC(=O)CCC(=O)O[C@H]2CC[C@@]3(C)C(=CC[C@H]4[C@@H]5CC[C@H]([C@H](C)CCCC(C)C)[C@@]5(C)CC[C@@H]43)C2)C(=O)OCc2c1cc1n(c2=O)Cc2cc3ccccc3nc2-1 [Cholesterol succinate-20-CPT, Cholesterol succinate-20-camptothecin] | – | > 5000 | > 5000 | > 5000 | – | – | – | GI50 ([3]; SKOV-3 (OVARIAN), 48 hours): > 5000 nM
CC[C@@]1(O)C(=O)OCc2c1cc1n(c2=O)Cc2cc3ccccc3nc2-1 [Camptothecin, camptothecin] | – | – | – | – | 16 | 40 | 25 | Solubility ([5]; Acetonitrile, r.t.): 0.09 mg/g; Solubility ([5]; Soybean Oil USP, r.t.): 0.00 mg/g; GI50 [8]: 160 nM
CC[C@@]1(O)C(=O)OCc2c1cc1n(c2=O)Cc2cc3c(CN(C)C)c(O)ccc3nc2-1 [Topotecan, topotecan] | – | – | – | – | 19.9 | 39.8 | 63 | GI50 [8]: 501 nM
CC[C@@]1(OC(=O)O[C@H]2CC[C@@]3(C)C(=CC[C@H]4[C@@H]5CC[C@H]([C@H](C)CCCC(C)C)[C@@]5(C)CC[C@@H]43)C2)C(=O)OCc2c1cc1n(c2=O)Cc2cc3ccccc3nc2-1 [Cholesterol formate-20-CPT, Cholesterol Formate-20-camptothecin] | poor | – | – | – | – | – | – | GI50 (drug concentration that produces 50% cell growth inhibition) ([1]; HCT-15 (COLON), 48 hours): poor; GI50 (drug concentration that produces 50% cell growth inhibition) ([2]; H460 (NSCLC), 48 hours): poor; Solubility ([5]; Acetonitrile, r.t.): <1 mg/g; Solubility ([5]; Chloroform, r.t.): >335 mg/g; Solubility ([5]; Soybean Oil USP, r.t.): >2 mg/g; Solubility ([5]; Vitamin E USP/NF, 65 °C): >32 mg/g; GI50 (drug concentration that produces 50% cell growth inhibition) ([4]; HCT-116 (COLON), 48 hours): poor
CC[C@@]1(OC(=O)CC2(CC(=O)O[C@H]3CC[C@@]4(C)C(=CC[C@H]5[C@@H]6CC[C@H]([C@H](C)CCCC(C)C)[C@@]6(C)CC[C@@H]54)C3)CCCC2)C(=O)OCc2c1cc1n(c2=O)Cc2cc3ccccc3nc2-1 [Cholesterol 3,3-tetramethylene glutaric-20-camptothecin] | poor | ~10000 | ~10000 | ~10000 | – | – | – | –
CCc1c2c(nc3ccc(OC(=O)CC(C)CC(=O)O[C@H]4CC[C@@]5(C)C(=CC[C@H]6[C@@H]7CC[C@H]([C@H](C)CCCC(C)C)[C@@]7(C)CC[C@@H]65)C4)cc13)-c1cc3c(c(=O)n1C2)COC(=O)[C@]3(O)CC (stereo partly drawn) [Cholesterol 3-methyl glutaric-10-SN38, Cholesterol 3-methylglutaric-10-(7-ethyl-10-hydroxycamptothecin)] | poor | 2880 | 245 | 263 | – | – | – | –
CCc1c2c(nc3ccc(O)cc13)-c1cc3c(c(=O)n1C2)COC(=O)[C@]3(O)CC [SN38, 7-ethyl-10-hydroxycamptothecin] | – | – | – | – | 1.4 | 21 | 1 | GI50 [8]: 7.9 nM
CCc1c2c(nc3ccc(OC(=O)CCC(=O)O[C@H]4CC[C@@]5(C)C(=CC[C@H]6[C@@H]7CC[C@H]([C@H](C)CCCC(C)C)[C@@]7(C)CC[C@@H]65)C4)cc13)-c1cc3c(c(=O)n1C2)COC(=O)[C@]3(O)CC [Cholesterol succinate-10-SN38, Cholesterol succinate-10-(7-ethyl-10-hydroxycamptothecin)] | – | – | – | – | – | – | – | GI50 [1]: 635 nM; GI50 [2]: 1660 nM; GI50 [3]: 708 nM; GI50 [4]: 339 nM
CCc1c2c(nc3ccc(OC(=O)N4CCC(N5CCCCC5)CC4)cc13)-c1cc3c(c(=O)n1C2)COC(=O)[C@]3(O)CC [Irinotecan, irinotecan] | – | – | – | – | 5010 | 7900 | 17 | –
